Experimental data from patent US9476099B2 (TRUSTEES OF DARTMOUTH COLLEGE, priority 2012, dated 2016).

Test system: NT2/D1-R1 control and DNMT3B knockdown cells
Test: Genome-wide expression analysis with PAM clusters, control and DNMT3B knockdown cells (Tables 8-14)
Details: sh-Ctrl + aza, NT2/D1-R1, decitabine 10 nM 3 days

Nc1ncn([C@H]2C[C@H](O)[C@@H](CO)O2)c(=O)n1 [aza]
ACSS2 (NM_0010765) gene expression, Mean: 354.703 | ADCK1 (NM_020421) gene expression, Mean: 203.584 | ADCY1 (NM_021116) gene expression, Mean: 106.028 | AGAP1 (NM_014914) gene expression, Mean: 188.156 | AK056312 gene expression, Mean: 293.846 | ANKRD9 (NM_152326) gene expression, Mean: 614.423 | APEH (NM_001640) gene expression, Mean: 720.135 | APP (NM_201414) gene expression, Mean: 326.901 | C1orf115 (NM_024709) gene expression, Mean: 213.203 | C2orf34 (NM_024766) gene expression, Mean: 205.5 | C7orf47 (NM_145030) gene expression, Mean: 466.635 | C16orf35 (NM_0010394) gene expression, Mean: 630.186 | CA4 (NM_000717) gene expression, Mean: 1449.98 | CACNA2D2 (NM_006030) gene expression, Mean: 304.761 | CD24 (NM_013230) gene expression, Mean: 1797.88 | CD248 (NM_020404) gene expression, Mean: 178.853 | CDC42EP5 (NM_145057) gene expression, Mean: 219.473 | CDH3 (NM_001793) gene expression, Mean: 651.295 | CEBPB (NM_005194) gene expression, Mean: 1388.19 | CHST13 (NM_152889) gene expression, Mean: 151.937 | CLASP1 (NM_015282) gene expression, Mean: 301.334 | CLIP2 (NM_032421) gene expression, Mean: 175.136 | COMMD1 (NM_152516) gene expression, Mean: 235.362 | COMMD7 (NM_0010993) gene expression, Mean: 915.427 | CRMP1 (NM_0010148) gene expression, Mean: 328.665 | CTNNBIP1 (NM_020248) gene expression, Mean: 144.946 | CXCL16 (NM_022059) gene expression, Mean: 279.669 | CYP2F1 (NM_000774) gene expression, Mean: 126.222 | CYP2S1 (NM_030622) gene expression, Mean: 604.679 | DBC1 (NM_014618) gene expression, Mean: 197.271 | DDIT4 (NM_019058) gene expression, Mean: 522.11 | DGKQ (NM_001347) gene expression, Mean: 247.199 | DLL3 (NM_016941) gene expression, Mean: 120.925 | DPYSL3 (NM_001387) gene expression, Mean: 602.964 | DYM (NM_017653) gene expression, Mean: 217.362 | DYSF (NM_003494) gene expression, Mean: 188.291 | EEF2K (NM_013302) gene expression, Mean: 243.652 | EPHA1 (NM_005232) gene expression, Mean: 497.427 | EVI5L (NM_145245) gene expression, Mean: 247.813 | EVL (NM_016337) gene expression, Mean: 537.424 | EXTL3 (NM_001440) gene expression, Mean: 695.163 | F11R (NM_016946) gene expression, Mean: 182.523 | FAF1 (NM_007051) gene expression, Mean: 209.978 | FAM125A (NM_138401) gene expression, Mean: 564.523 | FAM127A (NM_0010781) gene expression, Mean: 867.222 | FCGBP (NM_003890) gene expression, Mean: 247.577 | FDFT1 (NM_004462) gene expression, Mean: 417.59 | FIGNL2 (NM_0010136) gene expression, Mean: 231.29 | FLNB (NM_001457) gene expression, Mean: 679.266 | FOXN3 (NM_005197) gene expression, Mean: 274.017 | GAL (NM_015973) gene expression, Mean: 1375.17 | GAS7 (NM_201433) gene expression, Mean: 225.598 | GLG1 (NM_012201) gene expression, Mean: 958.607 | GRAMD1A (NM_020895) gene expression, Mean: 767.701 | GTF3C1 (NM_001520) gene expression, Mean: 387.976 | HCFC1R1 (NM_0010020) gene expression, Mean: 427.673 | HESX1 (NM_003865) gene expression, Mean: 204.885 | HINT2 (NM_032593) gene expression, Mean: 537.794 | HIST3H2A (NM_033445) gene expression, Mean: 314.077 | HIST4H4 (NM_003541) gene expression, Mean: 218.72 | HK1 (NM_033500) gene expression, Mean: 3617.1 | IDH1 (NM_005896) gene expression, Mean: 668.525 | IL21R (NM_181078) gene expression, Mean: 154.278 | JPH3 (NM_020655) gene expression, Mean: 167.797 | KIF1A (NM_004321) gene expression, Mean: 160.071 | KIF1B (NM_015074) gene expression, Mean: 252.94 | LDB2 (NM_001290) gene expression, Mean: 202.228 | LDOC1 (NM_012317) gene expression, Mean: 502.418 | LHFPL4 (NM_198560) gene expression, Mean: 215.926 | LONP1 (NM_004793) gene expression, Mean: 779.763 | LPCAT3 (NM_005768) gene expression, Mean: 477.318 | LRBA (NM_006726) gene expression, Mean: 170.16 | LRRC33 (NM_198565) gene expression, Mean: 145.858 | MAPK3 (NM_0010400) gene expression, Mean: 277.581 | MAPKAP1 (NM_0010066) gene expression, Mean: 182.648 | MED30 (NM_080651) gene expression, Mean: 647.26 | MID1IP1 (NM_021242) gene expression, Mean: 649.056 | MKRN1 (NM_013446) gene expression, Mean: 2856.3 | MSRB2 (NM_012228) gene expression, Mean: 934.409 | MYO5C (NM_018728) gene expression, Mean: 151.991 | NANOG (NM_024865) gene expression, Mean: 706.99 | NCOR2 (NM_006312) gene expression, Mean: 493.089 | NDUFS4 (NM_002495) gene expression, Mean: 337.053 | NFE2L3 (NM_004289) gene expression, Mean: 222.942 | NGFRAP1 (NM_206917) gene expression, Mean: 1121.05 | NKX3-2 (NM_001189) gene expression, Mean: 409.938 | NM_014745 gene expression, Mean: 379.916 | NPAS1 (NM_002517) gene expression, Mean: 201.893 | NPTX2 (NM_002523) gene expression, Mean: 367.499 | ODZ3 (NM_0010804) gene expression, Mean: 189.247 | P4HB (NM_000918) gene expression, Mean: 1383.99 | PACSIN1 (NM_020804) gene expression, Mean: 216.839 | PCDH19 (NM_020766) gene expression, Mean: 151.727 | PCK2 (NM_0010180) gene expression, Mean: 116.02 | PDZD4 (NM_032512) gene expression, Mean: 182.348 | PEMT (NM_148172) gene expression, Mean: 595.006 | PEX14 (NM_004565) gene expression, Mean: 250.351 | PGM1 (NM_002633) gene expression, Mean: 1814.18 | PHC1 (NM_004426) gene expression, Mean: 951.052 | PIM2 (NM_006875) gene expression, Mean: 985.879 | PITPNC1 (NM_181671) gene expression, Mean: 180.093 | PNKP (NM_007254) gene expression, Mean: 424.886 | PPAP2A (NM_176895) gene expression, Mean: 348.062 | PPP1R1B (NM_181505) gene expression, Mean: 238.675 | PQLC3 (NM_152391) gene expression, Mean: 198.571 | PRSS8 (NM_002773) gene expression, Mean: 991.013 | PSAT1 (NM_021154) gene expression, Mean: 1824.54 | PTOV1 (NM_017432) gene expression, Mean: 720.62 | PTPLA (NM_014241) gene expression, Mean: 227.16 | RAB3IP (NM_175624) gene expression, Mean: 601.056 | RALY (NM_007367) gene expression, Mean: 833.663 | RASIP1 (NM_017805) gene expression, Mean: 185.874 | RASL11B (NM_023940) gene expression, Mean: 432.564 | RCN2 (NM_002902) gene expression, Mean: 501.026 | REEP6 (NM_138393) gene expression, Mean: 405.813 | RNF130 (NM_018434) gene expression, Mean: 174.702 | ROD1 (NM_005156) gene expression, Mean: 637.491 | RPS6KA2 (NM_0010069) gene expression, Mean: 141.693 | SAT1 (NM_002970) gene expression, Mean: 1895.82 | SCARB1 (NM_005505) gene expression, Mean: 433.694 | SEMA4B (NM_198925) gene expression, Mean: 288.428 | SEMA4D (NM_006378) gene expression, Mean: 315.221 | SEMA6B (NM_032108) gene expression, Mean: 218.592 | SH2B3 (NM_005475) gene expression, Mean: 424.579 | SLC3A2 (NM_0010132) gene expression, Mean: 898.448 | SLC8A2 (NM_015063) gene expression, Mean: 166.295 | SLC16A10 (NM_018593) gene expression, Mean: 159.709 | SLC22A23 (NM_021945) gene expression, Mean: 233.534 | SND1 (NM_014390) gene expression, Mean: 423.122 | SOX2 (NM_003106) gene expression, Mean: 271.23 | SPRY1 (NM_005841) gene expression, Mean: 248.973 | SPSB2 (NM_032641) gene expression, Mean: 474.363 | SRPX (NM_006307) gene expression, Mean: 222.901 | SURF6 (NM_006753) gene expression, Mean: 1293.98 | TBCD (NM_005993) gene expression, Mean: 256.961 | TCEA2 (NM_198723) gene expression, Mean: 483.559 | TCF7L1 (NM_031283) gene expression, Mean: 144.548 | TIMP4 (NM_003256) gene expression, Mean: 389.521 | TMC6 (NM_007267) gene expression, Mean: 346.392 | TMEM145 (NM_173633) gene expression, Mean: 166.627 | TPST2 (NM_0010085) gene expression, Mean: 370.953 | TRAPPC9 (NM_031466) gene expression, Mean: 104.733 | TSPAN9 (NM_006675) gene expression, Mean: 1313.95 | TUBB4 (NM_006087) gene expression, Mean: 253.587 | UBE2E2 (NM_152653) gene expression, Mean: 347.293 | UNC84B (NM_015374) gene expression, Mean: 465.92 | VCX2 (NM_016378) gene expression, Mean: 415.874 | VCX3A (NM_016379) gene expression, Mean: 1237.23 | VCX3B (NM_0010018) gene expression, Mean: 1368.4 | VSNL1 (NM_003385) gene expression, Mean: 249.848 | WDR8 (NM_017818) gene expression, Mean: 619.054 | XBP1 (NM_0010795) gene expression, Mean: 505.041 | XM_373896 gene expression, Mean: 276.846 | XM_926633 gene expression, Mean: 1782.67 | XM_932919 gene expression, Mean: 283.159 | XM_933796 gene expression, Mean: 270.602 | XM_943677 gene expression, Mean: 245.788 | ZBTB46 (NM_025224) gene expression, Mean: 207.588 | ZSWIM4 (NM_023072) gene expression, Mean: 393.591 | HIST1H2BK (NM_080593) gene expression, Mean (first HIST1H2BK entry (r906)): 1316.1 | TRPC4AP (NM_015638) gene expression, Mean (first TRPC4AP entry (r880)): 633.52 | HIST1H2BK (NM_080593) gene expression, Mean (second HIST1H2BK entry (r952)): 332.966 | TRPC4AP (NM_015638) gene expression, Mean (second TRPC4AP entry (r892)): 1094.19
